We go through five compounds from patent US5478728A, “Process for antibody combining site-catalyzed SYN elimination in the formation of a CIS olefin” (The Scripps Research Institute, priority 1994, dated 1995).

Data set [1] has as its system antibody 1D4. Nature of the data set: Inhibition of 1D4 catalytic activity by hapten. Conditions: addition of hapten; substrate Compound 1. The format is biochemical, mouse. On the procedure: (§1) Immunization with the KLH conjugate and generation of monoclonal antibodies were performed as described hereinafter. Twenty-six monoclonal antibodies specific for Compound 5 were assayed for catalysis. The rate of elimination of substrate Compound 1 to product Compounds 3 or 4 was assayed in the absence and presence of antibody at 37° C. Thus, a solution of antibody in 100 mM CHES buffer, pH 9.0 at 37° C., was treated with substrate Compound 1 in DMSO to provide a final solution containing […] in 15 percent aqueous DMSO, 100 mM CHES, pH 9.0. All reaction rates were determined by analytical reverse phase HPLC (Vydac-C18, 41 percent acetonitrile in H2 O/0.1 percent trifluoroacetic acid) by measuring product formation relative to 4-methyl-3-nitroanisole as a standard.
The initial rate of syn elimination by 1D4, when measured as a function of substrate Compound 1 concentrations followed Michaelis-Menten kinetics.

Data set [2] is described as follows: Background elimination and isomerization in the absence of antibody. To be noted: for isomerization of olefinic product under background reaction conditions / elimination product formed in the absence of antibody: 15 percent aq DMSO, 100 mM CHES buffer; for isomerization of olefinic product under background reaction conditions: no antibody. The format is physicochemical. Here is the method: Reaction conditions: 15 percent aq DMSO, 100 mM CHES buffer, pH 9.0, 37° C.
as §1

SMILES strings stand for the structures. Entries after “also recorded” stand apart in the source; their conditions may differ.

For `N[C@@]1(C(=O)c2ccccc2)[C@@H]2C[C@@H](C[C@H]2OC(=O)CCC(=O)O)[C@@H]1c1ccccc1` (relative stereo) [Compound 5, (1R*,2S*,4R*,5S*,6S*)-6-Amino-6-benzoyl-5-phenylbicyclo[2.2.1]heptane-2-hemisuccinate], the “inhibition of the catalytic activity of 1D4” value in data set [1] is “competitively inhibited”.

For `C/C(=C\c1ccccc1)C(=O)c1ccccc1` [Compound 3], in data set [2] (pH 9.0, 37° C.), the “isomerization of olefinic product under background reaction conditions” value is reported as “No isomerization”.

As for `C/C(=C/c1ccccc1)C(=O)c1ccccc1` [Compound 4], the “isomerization of olefinic product under background reaction conditions” value in data set [2] (pH 9.0, 37° C.) is listed as “No isomerization”.

As for `C[C@@H](C(=O)c1ccccc1)[C@@H](F)c1ccccc1` (relative stereo) [Compound 1], the “elimination product formed in the absence of antibody” value in data set [2] (pH 9.0, 37° C.) is reported as “exclusively the trans olefin Compound 3; also recorded: only product Compound 3 was generated”. For the same compound, in data set [2] (absence of antibody, 15 percent aqueous DMSO, 100 mM CHES, pH 9.0, 37° C.), the “first order rate constant of elimination to Compound 3” value came out at 0.000248 min⁻¹. The “formation of cis product Compound 4 in the absence of antibody” value in data set [2] (reaction conditions pH 9.0, 37° C.) is “immeasurably slow”.

On to `C[C@@H](C(=O)c1ccccc1)[C@H](F)c1ccccc1` (relative stereo) [Compound 2], for which the “elimination product formed in the absence of antibody” value in data set [2] (pH 9.0, 37° C.) is recorded as “eliminates entirely to the trans olefin Compound 3”.
